Data as given in ChEMBL document CHEMBL1201862, “PubChem BioAssay data set” (2004).
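Cells were grown in 96-well plates and exposed to each compound for 48 hours at five concentrations; endpoints were interpolated linearly between bracketing concentrations, or set to the highest concentration if not reached. The concentration for 50% growth inhibition is given as GI50.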 The source made the active and inactive calls. No stated cut-off is given here; in the data, active = GI50 up to about 1.1 µM and inactive = higher.

Legend:
Assay in all cases: NCI anticancer screen, dose series, 48 h
[1] = system: MDA-MB-231
[2] = system: SN12C
[3] = system: NCI/ADR-RES
[4] = system: IGROV-1
[5] = system: Malme-3M
[6] = system: DU-145
[7] = system: M14
[8] = system: A549
[9] = system: SK-MEL-28
[10] = system: COLO 205
[11] = system: UACC-62
[12] = system: SK-OV-3
[13] = system: HOP-92
[14] = system: SK-MEL-5
[15] = system: T47D
[16] = system: HT-29
[17] = system: BT-549
[18] = system: HCT-15
[19] = system: SNB-19
[20] = system: SF-295

| Structure (SMILES) | GI50 [1] | GI50 [2] | GI50 [3] | GI50 [4] | GI50 [5] | GI50 [6] | GI50 [7] | GI50 [8] | GI50 [9] | GI50 [10] | GI50 [11] | GI50 [12] | GI50 [13] | GI50 [14] | GI50 [15] | GI50 [16] | GI50 [17] | GI50 [18] | GI50 [19] | GI50 [20] |
| --- | --- | --- | --- | --- | --- | --- | --- | --- | --- | --- | --- | --- | --- | --- | --- | --- | --- | --- | --- | --- |
| CCCCCCCCCC[S+]([O-])CC(CO)NC(=O)/C=C/c1c(C)nc(O)nc1O (stereo not drawn) | 2.97 µM (inactive) | 0.126 µM (active) | 4.43 µM (inactive) | 0.959 µM (active) | 0.47 µM (active) | 43.4 µM (inactive) | 11 µM (inactive) | 2.22 µM (inactive) | 1.21 µM (inactive) | 0.247 µM (active) | 0.628 µM (active) | 1.38 µM (inactive) | 0.189 µM (active) | 0.918 µM (active) | 20.8 µM (inactive) | 1.36 µM (inactive) | 10.5 µM (inactive) | 1.28 µM |  |  |
| O=c1nc2n(CCO)c(-c3ccccc3)c(-c3ccccc3)nc-2c(=O)[nH]1 | > 100 µM (inactive) | > 100 µM (inactive) | > 100 µM (inactive) | > 100 µM (inactive) | > 100 µM (inactive) | > 100 µM (inactive) | > 100 µM (inactive) | > 100 µM (inactive) | > 100 µM (inactive) | > 100 µM (inactive) | > 100 µM (inactive) | > 100 µM (inactive) | 88.9 µM (inactive) | > 100 µM (inactive) | > 100 µM (inactive) | > 100 µM (inactive) | > 100 µM (inactive) | > 100 µM | > 100 µM (inactive) | > 100 µM (inactive) |
| CCOC(=O)C(=O)CC(=O)C1=C(c2ccccc2OC)CC(c2cccs2)=CC1=O | 93.3 µM (inactive) | > 100 µM (inactive) | 46 µM (inactive) | 15.3 µM (inactive) | > 100 µM (inactive) | > 100 µM (inactive) | 26.1 µM (inactive) | 43.5 µM (inactive) | > 100 µM (inactive) | 39.7 µM (inactive) | > 100 µM (inactive) | 29.7 µM (inactive) | 71.1 µM (inactive) | 44.1 µM (inactive) | 90.6 µM (inactive) | 50.2 µM (inactive) | > 100 µM (inactive) | 82.4 µM | > 100 µM (inactive) | 18.7 µM (inactive) |
| N#CC(C(=O)c1cccnc1Cl)c1nc2cc(C(F)(F)F)ccc2s1 (stereo not drawn) | 54 µM (inactive) | 27.7 µM (inactive) | 65.5 µM (inactive) | > 100 µM (inactive) | 37.1 µM (inactive) | > 100 µM (inactive) | 50.8 µM (inactive) | > 100 µM (inactive) | 56.8 µM (inactive) | 44.2 µM (inactive) |  | 62.7 µM (inactive) | 12.4 µM (inactive) | > 100 µM (inactive) | > 100 µM (inactive) | 28.3 µM (inactive) | 37.4 µM (inactive) | 35.3 µM | 77.3 µM (inactive) | 27.7 µM (inactive) |
| CC(C)(C)OC(=O)N1C[C@H](CC(=O)OCc2ccccc2)C[C@H]1C(=O)OCC(Cl)(Cl)Cl | 11.3 µM (inactive) | 6.62 µM (inactive) | 2.64 µM (inactive) |  | 6.28 µM (inactive) | > 50 µM (inactive) | 6.46 µM (inactive) | 4.69 µM (inactive) | 13.6 µM (inactive) | 3.18 µM (inactive) | 5.6 µM (inactive) | > 50 µM (inactive) | 1.79 µM (inactive) | 2.24 µM (inactive) | 1.64 µM (inactive) | 4.7 µM (inactive) | 8.15 µM (inactive) | 3.27 µM | 7.74 µM (inactive) | 2.38 µM (inactive) |
| CCCN(C(=O)c1c(Cl)nnc(Cl)c1C(=O)c1cc(Cl)nnc1Cl)c1cc(Cl)nnc1Cl | 15.7 µM (inactive) | 12.4 µM (inactive) | 6.7 µM (inactive) | 7.52 µM (inactive) |  | 7.91 µM (inactive) | 16.1 µM (inactive) | 32.1 µM (inactive) | 12.9 µM (inactive) | 5.77 µM (inactive) | 10.6 µM (inactive) | 33.3 µM (inactive) | 18.4 µM (inactive) | 9.18 µM (inactive) | 4.55 µM (inactive) | 16.7 µM (inactive) | 9.73 µM (inactive) | 4.65 µM | 27.8 µM (inactive) | 19.9 µM (inactive) |
| CN(C(=O)C12C3C4(C(=O)O)C1(C(=O)N(C)C(C)(C)C)C1C2(C(=O)O)C3(C(=O)N(C)C(C)(C)C)C14C(=O)N(C)C(C)(C)C)C(C)(C)C (stereo not drawn) | > 100 µM (inactive) | > 100 µM (inactive) | > 100 µM (inactive) | > 100 µM (inactive) |  | > 100 µM (inactive) | > 100 µM (inactive) | > 100 µM (inactive) | > 100 µM (inactive) | > 100 µM (inactive) | > 100 µM (inactive) |  | > 100 µM (inactive) | > 100 µM (inactive) | > 100 µM (inactive) | > 100 µM (inactive) | > 100 µM (inactive) | > 100 µM | > 100 µM (inactive) | > 100 µM (inactive) |
| Cc1ccc2c(c1)C(=O)/C(=C\c1ccc(Cl)cc1)CCS2(=O)=O | 3.58 µM (inactive) | 2.86 µM (inactive) | 2.18 µM (inactive) | 2.65 µM (inactive) | 2.07 µM (inactive) | 2.66 µM (inactive) | 4.05 µM (inactive) | 4.06 µM (inactive) | 4.59 µM (inactive) | 3.85 µM (inactive) | 3.15 µM (inactive) | 7.82 µM (inactive) | 3.53 µM (inactive) | 3.22 µM (inactive) | 1.41 µM (inactive) | 2.55 µM (inactive) | 3.8 µM (inactive) | 1.97 µM | 2.1 µM (inactive) | 4.21 µM (inactive) |
| C=C(C)[C@@H]1CCC2=C[C@@H](OC2=O)[C@@H](C(=C)C)C2=CC(C(=O)O)=C(C1)O2 | > 100 µM (inactive) | > 100 µM (inactive) | > 100 µM (inactive) | > 100 µM (inactive) | > 100 µM (inactive) | > 100 µM (inactive) | > 100 µM (inactive) | > 100 µM (inactive) |  | > 100 µM (inactive) | > 100 µM (inactive) | > 100 µM (inactive) | > 100 µM (inactive) | > 100 µM (inactive) | 59.2 µM (inactive) | > 100 µM (inactive) | > 100 µM (inactive) | > 100 µM | > 100 µM (inactive) | > 100 µM (inactive) |
| CCOP(=O)(OCC)/C(=C\N1C(=O)CC(=O)NC1=S)C(=O)OC | > 100 µM (inactive) | > 100 µM (inactive) | > 100 µM (inactive) | > 100 µM (inactive) |  | > 100 µM (inactive) | > 100 µM (inactive) | > 100 µM (inactive) | > 100 µM (inactive) | > 100 µM (inactive) | > 100 µM (inactive) | > 100 µM (inactive) | > 100 µM (inactive) | > 100 µM (inactive) | > 100 µM (inactive) | > 100 µM (inactive) | > 100 µM (inactive) | > 100 µM | > 100 µM (inactive) | > 100 µM (inactive) |
| CCOC(=O)N1CCC2(CC1)CC(=O)N(Nc1ccccc1)C2=O | > 100 µM (inactive) | > 100 µM (inactive) | > 100 µM (inactive) | 79.8 µM (inactive) | > 100 µM (inactive) | > 100 µM (inactive) | > 100 µM (inactive) | > 100 µM (inactive) | 74.3 µM (inactive) | > 100 µM (inactive) | 32.1 µM (inactive) | > 100 µM (inactive) | > 100 µM (inactive) | > 100 µM (inactive) | 43.5 µM (inactive) | 90.2 µM (inactive) | > 100 µM (inactive) | > 100 µM | > 100 µM (inactive) | 40.3 µM (inactive) |
| NC(=O)N/N=C1\C[C@H]2CCCC[C@H]2C1 | > 100 µM (inactive) | > 100 µM (inactive) | > 100 µM (inactive) | > 100 µM (inactive) |  | > 100 µM (inactive) | > 100 µM (inactive) | > 100 µM (inactive) | > 100 µM (inactive) | > 100 µM (inactive) | > 100 µM (inactive) | > 100 µM (inactive) | > 100 µM (inactive) | > 100 µM (inactive) | > 100 µM (inactive) | > 100 µM (inactive) | 42.7 µM (inactive) | > 100 µM | 84.7 µM (inactive) | > 100 µM (inactive) |
| COc1ccc(N2C(=O)C3c4[nH]c5c(C)cccc5c4C4CCC(c5ccccc5)CC4C3C2=O)cc1 (stereo not drawn) | 16.3 µM (inactive) | 16.2 µM (inactive) | 30.3 µM (inactive) | 13.7 µM (inactive) |  | 11.7 µM (inactive) | 11.9 µM (inactive) | 8.57 µM (inactive) | 12 µM (inactive) | 8.63 µM (inactive) | > 10 µM (inactive) | 17.7 µM (inactive) | 15 µM (inactive) |  | 5.81 µM (inactive) | 3.21 µM (inactive) | 24.9 µM (inactive) | 11.9 µM | 21.9 µM (inactive) | 17.5 µM (inactive) |
| CNC(=O)c1ccccc1[S+]1c2cccc3cccc(c23)C(=O)N1C (stereo not drawn) | > 100 µM (inactive) | > 100 µM (inactive) | > 100 µM (inactive) | > 100 µM (inactive) | > 100 µM (inactive) | > 100 µM (inactive) | > 100 µM (inactive) | > 100 µM (inactive) | > 100 µM (inactive) | > 100 µM (inactive) | > 100 µM (inactive) |  | > 100 µM (inactive) | > 100 µM (inactive) | > 100 µM (inactive) | > 100 µM (inactive) | > 100 µM (inactive) | > 100 µM | > 100 µM (inactive) | > 100 µM (inactive) |
| Nc1ccc(S(=O)(=O)Nc2nnc(S(N)(=O)=O)s2)cc1 | > 100 µM (inactive) |  | > 100 µM (inactive) |  | > 100 µM (inactive) | > 100 µM (inactive) | > 100 µM (inactive) | > 100 µM (inactive) |  | > 100 µM (inactive) | > 100 µM (inactive) | > 100 µM (inactive) | 34.5 µM (inactive) |  | > 100 µM (inactive) | > 100 µM (inactive) | > 100 µM (inactive) | > 100 µM | > 100 µM (inactive) | > 100 µM (inactive) |
